In patent US7160874B2, “Phenylalanine derivatives” (Ajinomoto Co., Inc., priority 1999, dated 2007):
Where two headings read alike, the source gives them in different places.

Legend:
integrin α4β7 = target: T1, integrin α4β7 (Homo sapiens, UniProt P13612+P26010); assay: VCAM antagonistic activity (VCAM-1/α4β7 binding assay); type: cell-based
T1 construct: lymphoma cell strain RPMI-8866 of human B cells, known to express integrin α4β7; endogenous in cells; host or cells: RPMI-8866 (human B lymphoma cell line)
T1 sequence (P13612 34-1032): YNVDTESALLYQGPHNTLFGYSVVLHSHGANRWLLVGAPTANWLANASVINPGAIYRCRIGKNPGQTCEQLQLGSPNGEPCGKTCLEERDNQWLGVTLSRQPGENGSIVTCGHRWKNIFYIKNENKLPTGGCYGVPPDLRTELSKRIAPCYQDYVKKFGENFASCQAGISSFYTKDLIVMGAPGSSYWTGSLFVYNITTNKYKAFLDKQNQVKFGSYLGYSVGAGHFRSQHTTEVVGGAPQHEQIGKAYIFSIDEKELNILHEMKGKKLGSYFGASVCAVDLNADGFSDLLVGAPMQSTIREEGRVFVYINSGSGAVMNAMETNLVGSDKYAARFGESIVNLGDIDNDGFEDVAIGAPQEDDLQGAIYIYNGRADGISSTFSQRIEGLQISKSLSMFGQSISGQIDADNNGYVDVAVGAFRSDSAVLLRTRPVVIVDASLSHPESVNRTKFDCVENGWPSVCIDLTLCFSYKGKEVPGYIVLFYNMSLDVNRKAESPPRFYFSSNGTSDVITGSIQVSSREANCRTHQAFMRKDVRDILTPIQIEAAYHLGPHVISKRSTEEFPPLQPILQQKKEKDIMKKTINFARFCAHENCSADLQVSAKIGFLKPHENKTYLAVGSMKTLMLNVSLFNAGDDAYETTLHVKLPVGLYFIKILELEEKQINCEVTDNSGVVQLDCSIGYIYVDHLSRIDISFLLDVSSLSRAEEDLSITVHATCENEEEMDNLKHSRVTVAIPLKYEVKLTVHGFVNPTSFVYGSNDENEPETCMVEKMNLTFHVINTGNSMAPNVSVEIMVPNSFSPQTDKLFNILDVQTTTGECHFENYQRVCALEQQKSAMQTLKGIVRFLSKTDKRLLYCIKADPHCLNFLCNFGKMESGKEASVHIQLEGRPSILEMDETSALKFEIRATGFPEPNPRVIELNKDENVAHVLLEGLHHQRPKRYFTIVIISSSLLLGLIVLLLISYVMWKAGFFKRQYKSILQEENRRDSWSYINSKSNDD
T1 sequence (P26010 20-798): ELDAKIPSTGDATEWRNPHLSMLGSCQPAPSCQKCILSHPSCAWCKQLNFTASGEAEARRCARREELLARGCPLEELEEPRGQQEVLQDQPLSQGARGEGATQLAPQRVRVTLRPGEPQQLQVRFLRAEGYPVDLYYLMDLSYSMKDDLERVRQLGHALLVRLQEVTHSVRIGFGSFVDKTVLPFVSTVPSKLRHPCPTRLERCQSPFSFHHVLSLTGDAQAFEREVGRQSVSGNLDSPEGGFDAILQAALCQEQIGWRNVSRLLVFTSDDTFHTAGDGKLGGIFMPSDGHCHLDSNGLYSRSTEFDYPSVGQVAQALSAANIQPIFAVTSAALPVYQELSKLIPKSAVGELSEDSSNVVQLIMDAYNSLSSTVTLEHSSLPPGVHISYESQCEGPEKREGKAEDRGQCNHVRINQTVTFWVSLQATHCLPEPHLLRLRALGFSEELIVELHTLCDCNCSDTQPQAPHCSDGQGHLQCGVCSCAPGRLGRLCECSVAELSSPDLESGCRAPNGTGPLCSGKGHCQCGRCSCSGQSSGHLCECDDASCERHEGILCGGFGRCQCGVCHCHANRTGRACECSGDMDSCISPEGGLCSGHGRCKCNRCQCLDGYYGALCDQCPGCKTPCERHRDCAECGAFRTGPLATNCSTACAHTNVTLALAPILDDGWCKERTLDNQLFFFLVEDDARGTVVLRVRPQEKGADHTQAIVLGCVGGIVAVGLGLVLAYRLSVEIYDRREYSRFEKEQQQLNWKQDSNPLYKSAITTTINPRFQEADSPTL
Method: (Test Example) VCAM Antagonistic Activity (VCAM-1/α4β7 Binding Assay):
The capacity of a test substance antagonistic to the binding of lymphoma cell strain RPMI-8866 of human B cells, known to express integrin α4β7, to VCAM-1 was determined.
(§1) 100 μl/well of a solution (500 ng/ml) of recombinant human VCAM-1 (R & D systems) solution diluted with buffer A (0.1 M NaHCO3, pH 9.6) was added to a micro titer plate having 96 wells (Nunc Maxisorp). After the incubation at 4° C. overnight, unbound VCAM-1 was removed by washing once with PBS. After completion of the washing, a buffer (buffer B) obtained by diluting Block Ace® (Dainippon Pharmaceutical Co., Ltd.) with PBS to 1/4 concentration was added in an amount of 150 μl/well. After the incubation at room temperature for 1 hour, buffer B was removed and the plate was washed with PBS once.
RPMI-8866 cells were incubated in Dulbecco modified Eagle medium containing 10 μg/ml of Calcein-AM (Wako Pure Chemical Industries, Ltd.) (SIGMA, hereinafter referred to as “DMEM”) at 37° C. for 30 minutes to label with fluorescence. The cells were again suspended in a binding buffer (20 mM HEPES, DMEM containing 0.1% BSA) containing 4 mM of MnCl2.
(§2) 50 μl of a test substance of various concentrations obtained by the dilution with the binding buffer was added to the plate. Immediately thereafter, 50 μl (final volume: 100 μl/well) of the fluorescent RPMI-8866 cells (4×10^6 cells/ml) were added thereto, and they were incubated at room temperature for 30 minutes. After the shaking on a plate shaker (IKA MTS-4) at 800 rpm for 30 seconds, the solution was immediately removed to remove the unbound cells. The fluorescence quantity of the bound cells remaining in the wells was determined with a fluorescent plate reader (Wallac 1420 ARVO multi-label counter) (filter excitation wave length: 485 nm, emission wave length: 535 nm). The fluorescent strength thus obtained is proportional to the number of RPMI-8866 cells bound to VCAM-1 and remaining on the plate. The binding rate of each test material in various concentrations was determined while the fluorescent strength of the test material-free well was determined to be 100%. The concentration IC50 for the 50% binding inhibition was calculated.
(§3) The activities were classified into group A wherein IC50 was 0.02 μmol/l or below, group B wherein IC50 was higher than 0.02 μmol/l and not above 0.1 μmol/l, group C wherein IC50 was higher than 0.1 μmol/l and not above 2 μmol/l, and group D wherein IC50 was higher than 2 μmol/l and not above 10 μmol/l.

integrin α4β1 = target: T2, integrin α4β1 (Homo sapiens, UniProt P05556+P13612); assay: VCAM antagonist activity (VCAM-1/α4β1 binding assay); type: cell-based
T2 construct: cell strain Jurkat (ATCC TIB-152) of human T cells, known to express integrin α4β1; host or cells: Jurkat (human T cell line)
Method: (Test Example) VCAM Antagonist Activity (VCAM-1/α4β1 Binding Assay):
The capacity of a test substance antagonistic to the binding of cell strain Jurkat (ATCC TIB-152) of human T cells, known to express integrin α4β1, to VCAM-1 was determined.
as §1
Jurkat cells were washed with Dulbecco modified Eagle medium (SIGMA, hereinafter referred to as “DMEM”) twice and then incubated in DMEM containing 10 μg/ml of Calcein-AM (Wako Pure Chemical Industries, Ltd.) at 37° C. in dark place for 30 minutes to label with fluorescence. The cells were again suspended in a binding buffer (20 mM HEPES, DMEM containing 0.1% BSA).
as §2, with “Jurkat” for “RPMI-8866”
as §3

[1] = RPMI-8866 cells binding to VCAM-1, read-out: VCAM antagonistic activity (IC50) α4β7
[2] = Jurkat cells binding to VCAM-1, read-out: VCAM antagonistic activity (IC50) α4β1

T2 sequence (P05556 21-798, one chain of several): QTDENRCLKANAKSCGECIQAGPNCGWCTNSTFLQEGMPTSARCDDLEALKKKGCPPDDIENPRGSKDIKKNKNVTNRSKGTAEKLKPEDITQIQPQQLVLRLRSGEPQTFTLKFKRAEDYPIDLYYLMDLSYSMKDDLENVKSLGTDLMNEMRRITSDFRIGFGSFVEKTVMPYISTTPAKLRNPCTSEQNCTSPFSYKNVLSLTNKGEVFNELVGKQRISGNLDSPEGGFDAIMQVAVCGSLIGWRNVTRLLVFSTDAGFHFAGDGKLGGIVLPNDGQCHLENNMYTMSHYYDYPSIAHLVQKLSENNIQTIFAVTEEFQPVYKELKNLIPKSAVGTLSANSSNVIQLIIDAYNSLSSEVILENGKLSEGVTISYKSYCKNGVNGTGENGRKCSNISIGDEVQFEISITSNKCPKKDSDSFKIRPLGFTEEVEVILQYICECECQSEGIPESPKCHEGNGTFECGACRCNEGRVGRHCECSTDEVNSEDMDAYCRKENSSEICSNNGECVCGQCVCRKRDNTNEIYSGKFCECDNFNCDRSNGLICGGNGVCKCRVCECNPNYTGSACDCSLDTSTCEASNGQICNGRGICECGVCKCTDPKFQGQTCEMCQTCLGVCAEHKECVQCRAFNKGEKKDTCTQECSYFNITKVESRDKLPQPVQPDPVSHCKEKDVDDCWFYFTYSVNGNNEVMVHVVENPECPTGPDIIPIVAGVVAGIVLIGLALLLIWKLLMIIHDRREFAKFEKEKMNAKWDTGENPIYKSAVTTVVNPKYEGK

Row | SMILES | IC50 (integrin α4β7; [1]) [µM] | IC50 (integrin α4β1; [2]) [µM] | IC50 (integrin α4β7) [µM] | IC50 (integrin α4β1) [µM]
1 | CCC(CC)(C(=O)N[C@@H](Cc1ccc(OCc2c(Cl)cccc2Cl)cc1)C(=O)O)C(=O)N1CCC(=O)C1 [Example 69] | < 0.02 | 0.1 to 2 |  | 
2 | CCC(CC)(C(=O)N[C@@H](Cc1ccc(OCc2c(Cl)cccc2Cl)cc1)C(=O)O)C(=O)N1CCC[C@@H]1C(N)=O [Example 70] | < 0.02 | 0.02 to 0.1 |  | 
3 | CCC(CC)(C(=O)N[C@@H](Cc1ccc(OCc2c(Cl)cccc2Cl)cc1)C(=O)O)C(=O)N1CCC[C@H]1C(=O)NC [Example 72] | < 0.02 | 0.02 to 0.1 |  | 
4 | CCC(CC)(C(=O)N[C@@H](Cc1ccc(OCc2c(Cl)cccc2Cl)cc1)C(=O)O)C(=O)N1CC[C@@H](N)C1 [Example 76] | < 0.02 | 0.1 to 2 |  | 
5 | CCC(CC)(C(=O)N[C@@H](Cc1ccc(OCc2c(Cl)cccc2Cl)cc1)C(=O)O)C(=O)N1CCC[C@@H](O)C1 [Example 77] | < 0.02 | 0.1 to 2 |  | 
6 | CCC(CC)(C(=O)N[C@@H](Cc1ccc(OCc2c(Cl)cccc2Cl)cc1)C(=O)O)C(=O)N1CCC1 [Example 78] | < 0.02 | 0.1 to 2 |  | 
7 | CCC(CC)(C(=O)N[C@@H](Cc1ccc(OCc2c(Cl)cccc2Cl)cc1)C(=O)O)C(=O)N1CC(Br)C(Br)C1 (stereo partly drawn) [Example 79, N-(2-{[(trans-3,4-dibromopyrrolidine)-1-yl]carbonyl}-2-ethyl-butanoyl)-O-(2,6-dichlorobenzyl)-L-tyrosine] |  |  | < 0.02 | 0.1 to 2
8 | CCC(CC)(C(=O)N[C@@H](Cc1ccc(OCc2c(Cl)cccc2Cl)cc1)C(=O)O)C(=O)N1CC[C@H](F)C1 [Example 80] | < 0.02 | 0.1 to 2 |  | 

Now from value to compound, other results behind:

Row | IC50 (integrin α4β7; [1]) [µM] | IC50 (integrin α4β1; [2]) [µM] | SMILES | IC50 (integrin α4β7) [µM] | IC50 (integrin α4β1) [µM]
9 | < 0.02 | 0.1 to 2 | CCC(CC)(C(=O)N[C@@H](Cc1ccc(OCc2c(Cl)cccc2Cl)cc1)C(=O)O)C(=O)N1C[C@@H](O)[C@@H](O)C1 [Example 81, N-(2-{[(cis-3,4-dihydroxypyrrolidine)-1-yl]carbonyl}-2-ethyl-butanoyl)-O-(2,6-dichlorobenzyl)-L-tyrosine] |  | 
10 | < 0.02 | 0.02 to 0.1 | CCC(CC)(C(=O)N[C@@H](Cc1ccc(OCc2c(Cl)cccc2Cl)cc1)C(=O)O)C(=O)N1CC(O)C(Cl)C1 (stereo partly drawn) [Example 82] |  | 
11 | < 0.02 | 0.1 to 2 | CCC(CC)(C(=O)N[C@@H](Cc1ccc(OCc2c(Cl)cccc2Cl)cc1)C(=O)O)C(=O)N1CC[C@@H](F)C1 [Example 84] |  | 
12 | < 0.02 | 0.1 to 2 | CSc1ncc(Cl)c(C(=O)Nc2ccc(C[C@H](NC(=O)C3(C(=O)N(C)C)CC3)C(=O)O)cc2)n1 [Example 85, N-[1-N,N-dimethylaminocarbonylcyclopropane-1-ylcarbonyl]-4-({[5-chloro-2-(methylthio)pyrimidine-4-yl]carbonyl}-amino)-L-phenylalanine] |  | 
13 | 0.02 to 0.1 | 0.1 to 2 | CN(C)C(=O)C1(C(=O)N[C@@H](Cc2ccc(NC(=O)c3cc(F)c(F)cc3Cl)cc2)C(=O)O)CC1 [Example 86] |  | 
14 | 0.02 to 0.1 | 0.1 to 2 | CN(C)C(=O)C1(C(=O)N[C@@H](Cc2ccc(NC(=O)c3cc(Br)ccc3Cl)cc2)C(=O)O)CC1 [Example 87] |  | 
15 | 0.1 to 2 | 0.1 to 2 | CN(C)C(=O)C1(C(=O)N[C@@H](Cc2ccc(NC(=O)c3cc(Br)ccc3Br)cc2)C(=O)O)CC1 [Example 88] |  | 
16 | 0.1 to 2 | 0.1 to 2 | COc1ccc(Br)c(C(=O)Nc2ccc(C[C@H](NC(=O)C3(C(=O)N(C)C)CC3)C(=O)O)cc2)c1 [Example 89] |  | 
17 | 0.02 to 0.1 | 0.1 to 2 | CN(C)C(=O)C1(C(=O)N[C@@H](Cc2ccc(NC(=O)c3c(Cl)cccc3Cl)cc2)C(=O)O)CC1 [Example 90, N-[1-(N,N-dimethylaminocarbonyl)-cyclopropane-1-ylcarbonyl]-4-{[2,6-dichlorophenylcarbonyl]amino}-L-phenylalanine] |  | 
18 | < 0.02 | < 0.02 | CCC(CC)(C(=O)N[C@@H](Cc1ccc(NC(=O)c2c(Cl)cccc2Cl)cc1)C(=O)O)C(=O)N1CCCC1 [Example 91, N-[2-(pyrrolidine-1-ylcarbonyl)-2-ethyl-butanoyl]-4-{[(2,6-dichlorophenyl)carbonyl]amino}-L-phenylalanine] |  | 
